The results in this text go back to ChEMBL document CHEMBL1144213, “Synthesis and antiproliferative activity of unnatural enantiomers of 7-epi-goniofufurone and crassalactone C” (Bioorg Med Chem Lett, 2008).

SMILES strings stand for the structures.

In one experiment the test system is HL-60. In words: Cytotoxicity against human HL-60 cells after 72 hrs by MTT assay. The class given is functional, cell-based. Conditions: HL-60, 72 h.
The next experiment concerns Jurkat. The experiment can be described thus: Cytotoxicity against human Jurkat cells after 72 hrs by MTT assay. The class given is functional, cell-based.
The test system of another experiment is Raji. In words: Cytotoxicity against human Raji cells after 72 hrs by MTT assay. The class given is functional, cell-based.
A further experiment has as its system HeLa. In words: Cytotoxicity against human HeLa cells after 72 hrs by MTT assay. The class given is functional, cell-based.
The subject of the next experiment is MRC5. In words: Cytotoxicity against human MRC5 cells after 72 hrs by MTT assay. The format is cell-based. Particulars: MRC5, 72 h.

In the case of `O=C1C[C@H]2O[C@H]([C@@H](O)c3ccccc3)[C@H](O)[C@H]2O1`, the IC50 in the experiment on HL-60 was 22 µM; in the experiment on Jurkat it was 18.6 µM; in the experiment with Raji, 1.25 µM; with HeLa, 0.89 µM; with MRC5, over 100 µM.
`O=C1C[C@@H]2O[C@@H]([C@H](O)c3ccccc3)[C@@H](O)[C@@H]2O1`: the IC50 is 13.9 µM in the experiment with HL-60; 0.05 µM in the experiment with Jurkat; over 100 µM with Raji; 4.38 µM in the experiment on HeLa; over 100 µM in the experiment on MRC5.
Turning to `O=C1C[C@@H]2O[C@@H]3[C@@H](O[C@H]3c3ccccc3)[C@@H]2O1`, the IC50 in the experiment on HL-60 is 0.025 µM; with Jurkat, 28.4 µM; in the experiment with Raji, 0.45 µM; in the experiment with HeLa it was 0.97 µM; with MRC5 it was over 100 µM.
As for `O=C(/C=C/c1ccccc1)O[C@H](c1ccccc1)[C@H]1O[C@@H]2CC(=O)O[C@@H]2[C@H]1O` [(+)-CRASSALACTONE C], the IC50 is over 100 µM in the experiment with HL-60; 25.4 µM in the experiment with Jurkat; 15.5 µM in the experiment on Raji; 11.2 µM in the experiment on HeLa; over 100 µM in the experiment on MRC5.
For `O=C(/C=C/c1ccccc1)O[C@@H](c1ccccc1)[C@@H]1O[C@H]2CC(=O)O[C@H]2[C@@H]1O` [CRASSALACTONE C (ENANTIOMERIC MIX)], the IC50 in the experiment on HL-60 is 1.87 µM; in the experiment with Jurkat, 15.7 µM; with Raji, 0.57 µM; with HeLa it was 1.18 µM; in the experiment with MRC5, over 100 µM.
For `COc1cccc2c1C(=O)c1c(O)c3c(c(O)c1C2=O)C[C@@](O)(C(=O)CO)C[C@@H]3O[C@H]1C[C@H](N)[C@H](O)[C@H](C)O1` [DOXORUBICIN], the IC50 in the experiment with HL-60 turned out to be 0.92 µM; in the experiment with Jurkat, 0.03 µM.
